Patent US4764522A, “Ethylenediamine monoamides” (Hoffmann-La Roche Inc., priority 1984, dated 1988)
Where a name gives a salt, the structure may show the parent alone. Read-outs that look alike come from different tables or passages of the source.

Legend:
monoamine oxidase (MAO) = target: T1, monoamine oxidase (MAO) (Rattus norvegicus, UniProt P19643); assay: MAO inhibiting activity measured in homogenates of the brain two hours after p.o. administration to rats (phenethylamine as substrate); assay type: in vivo; conditions: po, read-out: ED50 (MAO inhibiting activity)
T1 construct: from tissue; host or cells: rat brain homogenate (ex vivo, two hours after p.o. dosing)
T1 sequence (P19643 1-520): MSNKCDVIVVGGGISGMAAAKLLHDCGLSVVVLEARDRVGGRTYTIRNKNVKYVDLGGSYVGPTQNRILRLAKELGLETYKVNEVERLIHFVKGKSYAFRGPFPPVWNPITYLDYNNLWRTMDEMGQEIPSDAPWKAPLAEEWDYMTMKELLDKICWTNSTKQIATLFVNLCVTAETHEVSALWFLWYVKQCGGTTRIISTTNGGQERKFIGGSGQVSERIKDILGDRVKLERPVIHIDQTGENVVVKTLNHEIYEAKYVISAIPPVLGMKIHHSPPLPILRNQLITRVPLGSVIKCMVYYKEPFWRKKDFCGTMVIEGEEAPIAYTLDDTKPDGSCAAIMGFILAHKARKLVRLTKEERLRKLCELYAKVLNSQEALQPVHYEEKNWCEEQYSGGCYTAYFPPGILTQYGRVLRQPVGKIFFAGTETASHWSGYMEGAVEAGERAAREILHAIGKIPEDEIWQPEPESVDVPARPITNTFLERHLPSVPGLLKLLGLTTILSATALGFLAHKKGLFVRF
Experimental: The MAO inhibiting activity of the compounds in accordance with the invention can be determined using standard methods. Thus, the substances to be tested were administered p.o. to rats.

[1] = toxicity (LD50), p.o. in the mouse; conditions: in vivo, po
Experimental: The MAO inhibiting activity of the compounds in accordance with the invention can be determined using standard methods. Thus, the substances to be tested were administered p.o. to rats. Two hours thereafter the animals were killed and the MAO inhibiting activity was measured in homogenates of the brain according to the method described in Biochem. Pharmacol. 12 (1963) 1439-1441, but using phenethylamine (2.10^-5 mol.1^-1) in place of tyramine as the substrate. The thus-determined activity of some compounds in accordance with the invention as well as their toxicity are evident from the following ED50 values (μmol/kg, p.o. in the rat) and LD50 values (mg/kg, p.o. in the mouse), respectively: […]

SMILES	ED50 (monoamine oxidase (MAO); rat, 2 h) [µmol/kg]	LD50 [1] [mg/kg]	ED50 (monoamine oxidase (MAO); p.o. in the rat, brain homogenates 2 hours after administration, substrate phenethylamine 2.10^-5 mol.1^-1) [µmol/kg]
Cl.Cl.NCCNC(=O)c1ncccc1N [N-(2-aminoethyl)-3-aminopyridine-2-carboxamide dihydrochloride]	5	2500 to 5000	–
Cl.NCCNC(=O)c1csc(Cl)n1 [N-(2-aminoethyl)-2-chlorothiazole-4-carboxamide hydrochloride]	6	2500 to 5000	–
Cc1cc(C(=O)NCCN)no1.Cl [N-(2-aminoethyl)-5-methylisoxazole-3-carboxamide hydrochloride]	20	> 4000	–
NCCNC(=O)c1cccc(Cl)n1 [N-(2-aminoethy)-6-chloropyridine-2-carboxamide hydrochloride]	–	625 to 1250	10
Cl.Cl.NCCNC(=O)c1ccccn1 [N-(2-aminoethyl)-pyridine-2-carboxamide dihydrochloride]	1.7	> 4000	–
Cl.NCCNC(=O)c1ncsc1Br [N-(2-aminoethyl)-5-bromothiazole-4-carboxamide hydrochloride]	10	1250 to 2500	–
Cl.NCCNC(=O)c1cc(Br)ccn1 [N-(2-aminoethyl)-4-bromopyridine-2-carboxamide hydrochloride]	4	1000 to 2000	–
Cl.NCCNC(=O)c1cc(Cl)ccn1 [N-(2-aminoethyl)-4-chloropyridine-2-carboxamide hydrochloride]	5	1250 to 2500	–
Cl.NCCNC(=O)c1cccc(Br)n1 [N-(2-aminoethyl)-6-bromopyridine-2-carboxamide hydrochloride]	8	1000 to 2000	–
Cl.NCCNC(=O)c1ccc(Cl)cn1 [N-(2-aminoethyl)-5-chloropyridine-2-carboxamide hydrochloride]	–	1000 to 2000	–
